The record followed here is patent US4992461A, “N-azabicyclo(3.3.0)octane amides of aromatic acids, compositions, and methods of use thereof” (G. D. Searle & Co., priority 1989, dated 1991).

Where a name gives a salt, the structure may show the parent alone.

One assay has as its system gastric antrum. Briefly: Antral motility in conscious fasted dogs. Format: in vivo, Mongrel dogs. The conditions noted are these: 60 min after injection relative to Phase III of MMC. The method, then:
This contractile activity is thought to enhance gastric emptying by more rapidly reducing food particle size for passage through the pylorus.
Mongrel dogs of either sex were surgically implanted with strain gauge force transducers on the gastric antrum at 6 cm, 4 cm and 2 cm from the gastroduodenal junction. The dogs were allowed two weeks to recover and were trained to stand quietly in Pavlov slings.
Dogs were fasted for 18 to 24 hours prior to each experiment to record a pattern of antral contractile activity characteristic of the fasted state called the Migrating Motor Complex (MMC). The period of the MMC cycle is approximately 90 to 120 minutes and consists of 45 to 60 minutes of motor quiescence (Phase I) 30 to 45 minutes of intermittent activity (Phase II) and 10 to 15 minutes of intense contractile activity (Phase III). A control MMC period is recorded prior to compound administration to obtain the length of the quiescent Phase I period. Compound is given intravenously at the end of Phase III of the control MMC cycle and a subsequent Phase I period is examined for the ability of the compound to produce contractions. A response index is calculated as the mean 10 minute motility index for 60 minutes following injection of test compound divided by the 10 minute motility index obtained for the previous Phase III period of the MMC. The response index represents an estimate of the fraction of maximal antral motor activity produced by the compound.

The subject of the next assay is rats. Briefly: Rat gastric emptying of a test meal. Format: in vivo, Male Charles River Rats, Crl: COBS, CD (SD) BR Strain. The conditions noted are these: 30 min before test meal, 60 min after meal. Here is the method:
A test meal for measuring gastric emptying in rats was prepared. Ten grams of methylcellulose (2% solution=15 centipoises; Aldrich Chemical Company, Milwaukee, Wis.) was added to 200 ml of cold water and mixed at 20,000 rpm in a Waring blender to insure dispersion and hydration of the methylcellulose. In addition, two beef bouillon cubes (Wyler's, Columbus, Ohio) dissolved in 100 ml of warm water was added to the mixture, followed by 16 g of casein (Hammersten, Schwartz/Mann, Orangeburg, N.Y.), 8 g of powdered confectioners sugar and 8 g of cornstarch. The ingredients were mixed for two minutes at 20,000 rpm and the resultant test meal was refrigerated for 48 hours to allow trapped air to escape.
Male Charles River Rats, Crl: COBS, CD (SD) BR Strain, 180-200 g body weight, were used in groups of six animals. The animals were food deprived for 24 hours prior to the experiment with access to water ad libitum. The compounds to be evaluated were prepared in a 0.5% aqueous methylcellulose solution. If insoluble, the mixture was homogenized for two minutes at 5500 rpm using a Try-R-Stir-R. The compounds were injected intraperitoneally at a volume of 5 ml/kg, 30 minutes before the test meal, (3.0 ml/rat i.g.). Control animals received only the vehicle. Sixty minutes after the test meal, the rats were sacrificed by cervical dislocation. The stomachs were removed intact and weighed. The stomachs were kept opened, gently rinsed with tap water, blotted dry with paper towelling, and the empty stomach weighed. The difference between the weight of the full and empty stomach is indicative of the amount of meal remaining in the stomach. The amount of meal remaining in the stomach was subtracted from the weight of 3 ml of the test meal to determine the amount of food emptied from the stomach during the test. Weight of the test meal was determined by weighing three samples (3 ml) at the beginning and three samples at the end of each experiment and calculating the mean. The mean and standard error of the amount of meal emptied were calculated.

In another assay the test system is 5-HT3. Kind of assay: Bezold-Jarisch Reflex test (5-HT induced bradycardia in pentobarbital anesthetized mice). Format: in vivo. Particulars: 5-HT 0.25 mg/kg i.v. induced bradycardia, 30 min. Here is the method: 5-HT3 antagonism can be determined for a compound by subjecting the compound to a Bezold-Jarisch Reflex test which is described and reported by Saxena, P.R., and Lawang, A.; Arch. Int.
The test compound is administered i.p. (mg/kg) to a group of 3 mice. Thirty minutes later a 5-HT (0.25 mg/kg i.v.) induced bradycardia is recorded in pentobarbital anesthetized animals.

Another assay deals with beagle dogs. Briefly: Antiemetic activity against cisplatin in beagle dogs. Format: in vivo. Particulars: cisplatin 3 mg/kg i.v., 5 hours. Here is the method: Antiemetic activity of test compound against cisplatin was determined in beagle dogs. Dogs are pretreated I.V. with a test compound dissolved in DMSO thirty minutes before administration of cisplatin 3 mg/kg.i.v. with a second dose of compounds given i.v. two hours after cisplatin administration. Emetic episodes are counted for 5 hours following cisplatin administration.
Per cent inhibition of emesis for each animal is determined by the following formula: [formula] A mean per cent inhibition of emesis is determined for at least 4 dogs.

As for `COc1cc(N)c(Cl)cc1C(=O)NC[C@H]1CCN2CCC[C@@H]12` (relative stereo) [Example 7, trans-4-amino-5-chloro-N-[(hexahydro-1H-pyrrolizin-1-yl)-methyl]-2-methoxybenzamide,dihydrochloride], the “RESPONSE INDEX” value in the assay with gastric antrum (3.0 mg/kg iv) was 0.40. Also, the “% INCREASE IN GASTRIC EMPTYING” value in the assay with rats (1.0 mg/kg ip) is 3.1%; with rats (3.0 mg/kg ip), 0.9%; in the assay on rats (10.0 mg/kg ip), -6.9%. For the same compound, the “% INHIBITION” value in the assay with 5-HT3 (2.5 mg/kg ip) was determined as 55%; in the assay on 5-HT3 (5.0 mg/kg ip), 61%; in the assay on 5-HT3 (10.0 mg/kg ip) it was 86%.

Regarding `COc1cc(N)c(Cl)cc1C(=O)NC1CCN(CCCOc2ccc(F)cc2)CC1OC` (centres unmarked) [Cisapride, cisapride], the “% INHIBITION OF CISPLATIN EMESIS” value with beagle dogs (0.3 mg/kg iv) is -2.3%; in the assay on beagle dogs (1.0 mg/kg iv) it was 91.0%. The entries for the “RESPONSE INDEX” value with gastric antrum (0.1 mg/kg iv), in the assay on gastric antrum (0.3 mg/kg iv) and in the assay on gastric antrum (1.0 mg/kg iv) were 0.45, 0.54 and 0.41, respectively. Besides, the “% INCREASE IN GASTRIC EMPTYING” value with rats (1.0 mg/kg ip) was determined as 9.8%; in the assay with rats (3.0 mg/kg ip) it was 15.4%; in the assay on rats (10.0 mg/kg ip), 25.0%. In addition, the “% INHIBITION” value with 5-HT3 (2.5 mg/kg ip) is 49%; with 5-HT3 (5.0 mg/kg ip), 54%; with 5-HT3 (10.0 mg/kg ip), 78%.

As for `CCN(CC)CCNC(=O)c1cc(Cl)c(N)cc1OC` [Metoclopramide, metoclopramide], the figures for the “% INHIBITION OF CISPLATIN EMESIS” value with beagle dogs (0.3 mg/kg iv) and with beagle dogs (3.0 mg/kg iv) were 19.5% and 99.9%, respectively. The “RESPONSE INDEX” value in the assay on gastric antrum (1.0 mg/kg iv) amounted to 0.23; with gastric antrum (3.0 mg/kg iv), 0.65. Moreover, the “% INCREASE IN GASTRIC EMPTYING” value in the assay with rats (1.0 mg/kg ip) is on record as 2.6%; in the assay on rats (3.0 mg/kg ip), 11.2%; in the assay with rats (10.0 mg/kg ip), 34.1%. The “% INHIBITION” value with 5-HT3 (10.0 mg/kg ip) turned out to be 40%.

As to `CN1C2CCC1CC(OC(=O)c1c[nH]c3ccccc13)C2` (centres unmarked) [ICS 205-930], the figures for the “% INHIBITION OF CISPLATIN EMESIS” value in the assay on beagle dogs (.005 mg/kg iv) and in the assay with beagle dogs (.05 mg/kg iv) were 60.8% and 100.0%, respectively.

As for `COc1cc(N)c(Cl)cc1C(=O)NC[C@@H]1CCN2CCC[C@@H]12` (relative stereo) [Example 5, cis-4-amino-5-chloro-N-[(hexahydro-1H-pyrrolizin-1-yl)methyl]-2-methoxybenzamide,dihydrochloride], the “% INHIBITION OF CISPLATIN EMESIS” value with beagle dogs (0.3 mg/kg iv) is 27.0%; with beagle dogs (3.0 mg/kg iv), 95.5%. For the same compound, the “RESPONSE INDEX” value with gastric antrum (0.3 mg/kg iv) was found to be 0.37; in the assay with gastric antrum (1.0 mg/kg iv) it was 0.49; in the assay with gastric antrum (3.0 mg/kg iv), 0.58. Also, the “% INCREASE IN GASTRIC EMPTYING” value was found to be 2.5% with rats (1.0 mg/kg ip), 9.4% in the assay on rats (3.0 mg/kg ip) and 15.8% in the assay with rats (10.0 mg/kg ip). Further, the “% INHIBITION” value in the assay with 5-HT3 (5.0 mg/kg ip) stood at 47%; in the assay on 5-HT3 (10.0 mg/kg ip) it was 85%.
